In paper PMC12456010, “Structural constraints prevent a bat norovirus from binding to histo-blood group antigen co-factors” (Journal of Virology, 2025):

Legend:
GX P domain (NPIH26) = molecular target: T1, GX P domain (NPIH26) (Bat norovirus, UniProt A0A2S1TZT6); assay: X-ray co-crystal structure, […] A; type: binding; conditions: co-crystallized with 30-60 molar excess; two fucose molecules per P domain dimer; site E332, H334, E349, T433 of one monomer; pH 6.5
T1 construct: gene ORF2; protruding (P) domain of the capsid protein, dimer

GII.27 P domain = molecular target: T2, GII.27 P domain (Norovirus GII, UniProt A0A2H4Y8Z8); assay: X-ray co-crystal structure, […] A; type: binding; conditions: co-crystallized with 30-60 molar excess; one molecule per dimer, site at dimer interface: N354, R355, D384 of one monomer, K444, G446, Y447 of the other
T2 construct: protruding (P) domain of the capsid protein, dimer

Compound	X-ray co-crystal structure, 1.55 A (GX P domain (NPIH26))	X-ray co-crystal structure, 1.76 A (GII.27 P domain)
C[C@@H]1OC(O)[C@@H](O)[C@H](O)[C@@H]1O (some centres unmarked) [FUC, fucose]	The GX P domain held the fucose molecules with six direct hydrogen bonds	–
CC(=O)N[C@H]1[C@@H](O[C@H]2[C@@H](O)[C@@H](CO)OC(O)[C@@H]2O[C@@H]2O[C@@H](C)[C@@H](O)[C@@H](O)[C@@H]2O)O[C@H](CO)[C@H](O)[C@@H]1O (stereo partly drawn) [A-trisaccharide, α-L-fucose-(1-2)-α-D-galactose-(3-1)-2-N-acetyl-α-D-galactosamine]	–	a single A-trisaccharide molecule bound to the P domain dimer
